Results: patent publication US7595345B2, “Vitamin D receptor modulators” (Eli Lilly and Company, priority 2003, dated 2009)

Assays:
VDR (pGal4-VDR-LBD) = biological target: T1, VDR (pGal4-VDR-LBD) (Homo sapiens, UniProt P11473); test: VDR CTF (Caco-2 cell co-transfection assay); assay type: cell-based; conditions: Caco-2 cells, Gal4-responsive reporter pFRLuc; surrogate for calcemic activity
T1 construct: the receptor expression vector pGal4-VDR-LBD (10 ng); expressed in transfected cells; host or cells: Caco-2 cells
T1 sequence (P11473 127-423 limits assumed): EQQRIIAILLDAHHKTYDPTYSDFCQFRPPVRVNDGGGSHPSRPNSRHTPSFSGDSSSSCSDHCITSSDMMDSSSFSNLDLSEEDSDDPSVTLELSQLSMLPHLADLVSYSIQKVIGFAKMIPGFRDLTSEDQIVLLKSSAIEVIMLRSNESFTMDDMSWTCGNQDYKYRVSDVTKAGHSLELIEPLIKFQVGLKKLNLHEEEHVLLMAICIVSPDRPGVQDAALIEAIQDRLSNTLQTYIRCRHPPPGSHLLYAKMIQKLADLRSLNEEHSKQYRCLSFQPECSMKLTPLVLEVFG
Experimental: 2. The Caco-2 Cell Co-Transfection Assay:
The Caco-2 cell assay is an indicator for the undesirable condition of hypercalcemia. This co-transfection assay is a surrogate assay for in vivo calcemic activity of VDR ligands. […] Preferred assay results are greater than 1000 nM.
(2) Materials and Method for the Caco-2 Cell Assay:
Caco-2 cells, grown in phenol red free, DMEM (Invitrogen, Carlsbad, Calif.) containing 10% charcoal-stripped FCS (Hyclone, Logan, Utah), were transfected with Fugene 6 reagent (Roche Diagnostics, Indianapolis, Ind.). Cells (5000/well) were plated 18 h before transfection in a 96 well plate. The Cells were transfected with Gal4-responsive reporter pFRLuc (150 ng, Stratagene, La Jolla Calif.) and the receptor expression vector pGal4-VDR-LBD (10 ng), along with Fugene 6 reagent (0.2 μl/well). The DNA-Fugene complex was formed by incubating the mixture for 30 min at room temperature. The cells were transfected in triplicate for 5 h, and treated with various concentrations of VDR ligands (form 0.01 nM to 10,000 nM concentration range) 18 h post-transfection. The luciferase activity was quantified using Steady-Glo reagent kit (Promega, Madison, Wis.) as per manufacturer's specifications.

[1] = Mouse hypercalcemia assay; assay type: in vivo; conditions: female DBF mice, oral gavage for 6 days, serum ionized calcium 6 hours after last dosing
Text: 4. The Mouse Hypercalcemia Assay
(4) Materials and Method for the Mouse Hypercalcemia Assay: […]

[2] = tested on: IL-10 production in PBMCs; test: Human IL-10 induction assay; assay type: cell-based; conditions: PBMC; TPA/PHA treated human PBMCs, IL-10 in supernatant by immunoassay
Text: 6. The IL-10 Induction Assay
This is an in vitro efficacy assay for psoriasis, abscess and adhesion. Psoriasis involves both keratinocytes and immune cells. IL-10 is a unique cytokine because it is anti-inflammatory and immunosuppressive. This assay tells us whether a VDRM is able to function as an agonist in PBMCs (primary blood mononuclear cells) or not. A lower EC50 value is desirable in this assay since a compound with a lower EC50 value will be a better agonist in PBMCs. […] 7. Other Compound Assay Standards An alternative measure of the efficacy of compounds of the invention for treatment of osteoporosis is a numerical ratio calculated as follows: • Dose Threshold needed to induce hypercalcemia • divided by • Dose Threshold needed for bone efficacy An alternative measure of the efficacy of compounds of the invention for treatment of psoriasis is a numerical ratio calculated as follows: • Dose Threshold needed to induce hypercalcemia • divided by • Dose Threshold needed to induce keratinocyte proliferation For the above ratios, Dose Thresholds are determined from dose response curve data. 8. The CaT1 (Calcium Transport Protein 1) Assay The CaT1 Assay is an indicator for the undesirable condition of hypercalcemia. The higher the EC50 values for a compound the less calcemic it will be in vivo. […] Preferred assay results are greater than 1000 nM. Details of the Assay Methods: (1) Materials and Method for RXR-VDR Heterodimerization Assay: Transfection Method:
(6) Materials and Method for Human IL-10 Induction Assay:
Isolation of peripheral blood mononuclear cells (PBMCs): • A. Collect 50 ml of human blood and dilute with media, RPMI-1640. • B. Prepare sterile tubes with ficol. • C. Add diluted blood to tubes. • D. Centrifuge. • E. Discard the top layer and collect the cells from middle layer. • F. Divide all cells into four tubes and add media. • G. Centrifuge. • H. Aspirate off media and resuspend. • I. Collect all cells • J. Centrifuge. at 1200 rpm for 10 minutes. • K. Resuspend in RPMI-1640 with 2% FBS and count cells
Stimulation of PBMC: • L. Prepare TPA in DMSO. • M. Dissolve PHA in water. • N. Plate TPA/PHA treated PBMCs in well plates. • O. Incubate.
Treatment: • P. Prepare all compound dilutions in plain RPMI-1640 media. • Q. Add diluted compound. • R. Incubate.
Sample Collection and Assay: • S. Remove all the cells by centrifugation and assay the supernatant for IL-10 by immunoassay. • 1) T. Perform IL-10 assay using anti-human IL-10 antibody coated beads, as described by the manufacturer (Linco Research Inc., St. Charles, Mo.).

SMILES | EC50 (VDR (pGal4-VDR-LBD)) | Mouse Hypercal [1] | IC50 [2]
CCC(O)(CC)COc1ccc(C(CC)(CC)c2ccc(C(=O)NCC(=O)O)c(C)c2)cc1C [Ex. 3, (4-{1-ethyl-1-[4-(2-ethyl-2-hydroxy-butoxy)-3-methyl-phenyl]-propyl}-2-methyl-benzoylamino)-acetic acid] | 819 nM | 1000 µg/kg/day | 718 nM
CCC(CC)(c1ccc(OCC(O)(C(C)C)C(C)C)c(C)c1)c1ccc(C(=O)NCC(=O)O)c(C)c1 [Ex. 4, (4-{1-Ethyl-1-[4-(2-hydroxy-2-isopropyl-3-methyl-butoxy)-3-methyl-phenyl]-propyl}-2-methyl-benzoylamino)-acetic acid] | 974 nM | 73000 µg/kg/day | 477 nM
